Source: BindingDB's records for doi:10.1016/j.bmc.2008.03.004 (Florida Atlantic University, 2009)

Molecular target: Collagenase 3 (Homo sapiens, UniProt P45452)
Test: Inhibition of human recombinant MMP13 expressed in Escherichia coli

IC50: > 40 µM
SMILES: COc1cc(-n2nc(C)c3c2OC(=N)C(C#N)C3c2ccccc2)c(Cl)c(Br)c1O (stereo unspecified) [6-amino-1-(3-bromo-2-chloro-4-hydroxy-5-methoxyphenyl)-3-methyl-4-phenyl-1,4-dihydropyrano[2,3-c]pyrazole-5-carbonitrile]
